How the values were obtained:
[1] = target: recombinant protein Wee-1 (Homo sapiens, UniProt P30291); test: Inhibition of enzymatic activity of recombinant protein Wee-1 (HTRF); format: biochemical
Procedure: The inhibitory effect of the compounds on the enzyme activity of recombinant protein Wee-1 was determined by HTRF. The procedures are as follows:
After DMSO or serially diluted compounds (up to 200 nM, 1:5 serially diluted) and recombinant proteins were co-incubated in a kinase buffer at 37° C. for 30 min Fluorescein-PolyGAT and ATP were added, and then the reaction was started by the addition of a substrate. After incubation at room temperature for 90 min, an antibody and a detection solution were added, and after further incubation at room temperature for 60 min, fluorescence values were detected (excitation wavelength: 340 nm, emission wavelengths: 495 and 520 nm). The 520 nm/495 nm fluorescence intensity ratio value was calculated, and compared with that of the DMSO group, and then the inhibition percentages and IC50 values of the compounds were calculated.

[2] = tested on: MIA PaCa-2 cells; test: In-vitro anti-proliferative activity on MIA PaCa-2 cells; format: cell-based; conditions: Homo sapiens, 72 h after dosing, intracellular ATP content
Procedure: MIA PaCa-2 cells were seeded on a 384-well plate at 3000 cells/well. After overnight adherence culture, DMSO or the compounds serially diluted 1:5 from 5 μM were added. The viability was assessed 72 h after dosing by measuring the intracellular ATP content. The inhibition percentage of viable cells by the compounds was calculated by comparing with the DMSO group, and the IC50 value was calculated.

[3] = tested on: MIA PaCa-2 cells; test: In-vitro anti-proliferative activity in combination with gemcitabine on MIA PaCa-2 cells; format: cell-based; conditions: with 20 nM gemcitabine, 72 h after dosing, intracellular ATP content
Procedure: MIA PaCa-2 cells were seeded on a 384-well plate at 3000 cells/well, and 20 nM gemcitabine was added. After overnight adherence culture, DMSO or the compounds serially diluted 1:5 from 100 nM were added. The viability was assessed 72 h after dosing by measuring the intracellular ATP content. The inhibition percentage of viable cells by the compounds was calculated by comparing with the DMSO group, and the IC50 value was calculated.

[4] = tested on: HT29 subcutaneous xenograft tumor; test: Mouse HT29 subcutaneous xenograft tumor model; format: in vivo; conditions: gemcitabine 15 mg/kg intraperitoneally once a week
Procedure: HT29 is a colon cancer cell. Each nude mouse was grafted subcutaneously with 5×10^6 HT29 cells. When the tumor grew to 100-200 mm^3, the compound was administered orally once a day alone or in combination with 15 mg/kg of gemcitabine injected intraperitoneally once a week, and the tumor volume was measured twice a week and at the end of treatment. Tumor growth inhibition of the compound was calculated according to the following equation: tumor growth inhibition (TGI)=1−(tumor volume on day 18 in treatment group−tumor volume on day 1 in treatment group)/(tumor volume on day 18 in vehicle control group−tumor volume on day 1 in treatment group).

recombinant protein Wee-1, sequence (P30291 whole entry): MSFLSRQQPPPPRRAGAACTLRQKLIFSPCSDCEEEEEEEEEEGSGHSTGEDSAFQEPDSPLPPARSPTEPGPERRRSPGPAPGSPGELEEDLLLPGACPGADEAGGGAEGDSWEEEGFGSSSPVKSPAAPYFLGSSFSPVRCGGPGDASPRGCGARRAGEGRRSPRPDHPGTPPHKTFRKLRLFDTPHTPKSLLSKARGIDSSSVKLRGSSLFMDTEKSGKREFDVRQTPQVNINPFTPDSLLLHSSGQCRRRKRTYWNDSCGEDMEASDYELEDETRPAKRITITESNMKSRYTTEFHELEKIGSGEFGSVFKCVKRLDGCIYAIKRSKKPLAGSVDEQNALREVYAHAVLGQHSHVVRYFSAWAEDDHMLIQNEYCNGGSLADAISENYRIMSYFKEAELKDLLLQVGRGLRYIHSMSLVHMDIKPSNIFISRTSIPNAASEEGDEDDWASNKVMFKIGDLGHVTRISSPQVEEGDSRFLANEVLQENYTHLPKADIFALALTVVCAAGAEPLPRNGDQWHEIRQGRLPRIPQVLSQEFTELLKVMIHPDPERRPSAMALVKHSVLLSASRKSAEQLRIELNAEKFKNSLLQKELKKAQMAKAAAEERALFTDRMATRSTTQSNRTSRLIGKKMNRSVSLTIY

Compound | IC50 [1] | IC50 [2] | IC50 [3] | other results
CN1Cc2cc(Nc3ncc(C#N)c(Nc4cccc(N=S(C)(C)=O)n4)n3)cc3c2[C@@H](CCC3)C1 (single isomer, unassigned) [Compound 3] | ≤ 10 nM | 1090 nM | 6.4 nM | –
CN1Cc2cc(Nc3ncc(C#N)c(Nc4cccc(N=S(C)(C)=O)n4)n3)cc3c2C(CCC3)C1 (stereo not shown) [Compound 1] | ≤ 10 nM | 236 nM | 1.9 nM | –
CN1Cc2cc(Nc3ncc(C#N)c(Nc4cccc(N=S(C)(C)=O)n4)n3)cc3c2C(C)(CCC3)C1 (stereo not shown) [Compound 4] | ≤ 10 nM | 968 nM | 2.4 nM | –
CN1Cc2cc(Nc3ncc(C#N)c(Nc4cccc(N=S(C)(C)=O)n4)n3)cc3c2[C@](C)(CCC3)C1 [Compound 5] | ≤ 10 nM | 1180 nM | 2.1 nM | –
CN1Cc2cc(Nc3ncc(C#N)c(Nc4cccc(N=S(C)(C)=O)n4)n3)cc3c2[C@@](C)(CCC3)C1 [Compound 6] | ≤ 10 nM | 910 nM | 5.3 nM | –
COc1c(Nc2ncc(C#N)c(Nc3cccc(N=S(C)(C)=O)n3)n2)cc2c3c1CCCC3CN(C)C2 (stereo not shown) [Compound 49] | 10 to 50 nM | > 5000 nM | > 100 nM | –
CN1Cc2cc(Nc3ncc(C#N)c(Nc4cccc(N=S(C)(C)=O)n4)n3)cc3c2C(CC3)C1 (stereo not shown) [Compound 50] | 10 to 50 nM | 148 nM | > 100 nM | –
CN1Cc2cc(Nc3ncc(C#N)c(Nc4cccc(N=S(C)(C)=O)n4)n3)cc3c2C(CCO3)C1 (stereo not shown) [Compound 64] | ≤ 10 nM | 400 nM | 3.5 nM | –
CN1Cc2cc(Nc3ncc(C#N)c(Nc4cccc(N=S(C)(C)=O)n4)n3)cc3c2C1CCC3 (stereo not shown) [Compound 87] | ≤ 10 nM | 184 nM | 1.6 nM | –
CN1Cc2cc(Nc3ncc(C#N)c(Nc4cncc(N=S(C)(C)=O)n4)n3)cc3c2C(CCC3)C1 (stereo not shown) [Compound 105] | ≤ 10 nM | 441 nM | 2.1 nM | –
CN1Cc2cc(Nc3ncc(C#N)c(Nc4cc5ccccc5c(N=S(C)(C)=O)n4)n3)cc3c2C(CCC3)C1 (stereo not shown) [Compound 108] | ≤ 10 nM | 225 nM | 11 nM | –
CN1Cc2cc(Nc3ncc(C#N)c(Nc4ccc(F)c(N=S(C)(C)=O)n4)n3)cc3c2C(CCC3)C1 (stereo not shown) [Compound 110] | – | 186 nM | 1.1 nM | –
CN1Cc2cc(Nc3ncc(C#N)c(Nc4nc(N=S(C)(C)=O)ccc4F)n3)cc3c2C(CCC3)C1 (stereo not shown) [Compound 112] | ≤ 10 nM | > 5000 nM | 29 nM | –
COc1ccc(Nc2nc(Nc3cc4c5c(c3)CN(C)CC5CCC4)ncc2C#N)nc1N=S(C)(C)=O (stereo not shown) [Compound 121] | ≤ 10 nM | 89 nM | 1.4 nM | –
C=Cc1cc(N=S(C)(C)=O)nc(Nc2nc(Nc3cc4c5c(c3)CN(C)CC5CCC4)ncc2C#N)c1 (stereo not shown) [Compound 122] | ≤ 10 nM | – | – | –
COc1ccc(Nc2nc(Nc3cc4c5c(c3)CN(C)CCC5CCC4)ncc2C#N)nc1N=S(C)(C)=O (stereo not shown) [Compound 123] | ≤ 10 nM | – | – | –
C=Cc1cc(N=S(C)(C)=O)nc(Nc2nc(Nc3cc4c5c(c3)CC(N(C)C)CCC5CCC4)ncc2C#N)c1 (stereo not shown) [Compound 124] | ≤ 10 nM | – | – | –
CN1Cc2cc(Nc3ncc(C#N)c(Nc4cccc(N=S(C)(C)=O)n4)n3)cc3c2C2(CCC3)CC12 (stereo not shown) [Compound 125] | ≤ 10 nM | – | – | –
CN1Cc2cc(Nc3ncc(C#N)c(Nc4cccc(N=S(C)(C)=O)n4)n3)cc3c2C(C1)CN(C)C3 [Compound 126] | ≤ 10 nM | – | – | –
CN1Cc2cc(Nc3ncc(C#N)c(Nc4cccc(N=S(C)(C)=O)n4)n3)cc3c2C(CNC3)C1 (stereo not shown) [Compound 127] | ≤ 10 nM | – | – | –
CC(=O)N1Cc2cc(Nc3ncc(C#N)c(Nc4cccc(N=S(C)(C)=O)n4)n3)cc3c2C(CN(C)C3)C1 (stereo not shown) [Compound 128] | ≤ 10 nM | – | – | –

Compound | IC50 [1] | IC50 [2] | IC50 [3] | other results
CN1Cc2cc(Nc3ncc(C#N)c(Nc4cccc(N=S(C)(C)=O)n4)n3)cc3c2C(C1)N(C)CC3 (stereo not shown) [Compound 129] | ≤ 10 nM | – | – | –
CN1Cc2cc(Nc3ncc(C#N)c(Nc4cccc(N=S(C)(C)=O)n4)n3)cc3c2C(C1)NCC3 (stereo not shown) [Compound 130] | ≤ 10 nM | – | – | –
CN1Cc2cc(Nc3ncc(C#N)c(Nc4cccc(N=S(C)(C)=O)n4)n3)cc3c2C(CCN3C)C1 (stereo not shown) [Compound 131] | ≤ 10 nM | – | – | –
CN1Cc2cc(Nc3ncc(C#N)c(Nc4cccc(N=S(C)(C)=O)n4)n3)cc3c2C(CCN3)C1 (stereo not shown) [Compound 132] | ≤ 10 nM | – | – | –
CN1Cc2cc(Nc3ncc(C#N)c(Nc4cccc(N=S(C)(C)=O)n4)n3)cc3c2C(CCC3)C1(C)C (stereo not shown) [Compound 133] | ≤ 10 nM | – | – | –
[2H]C([2H])([2H])N1Cc2cc(Nc3ncc(C#N)c(Nc4cccc(N=S(C)(C)=O)n4)n3)cc3c2C(CCC3)C1 (stereo not shown) [Compound 134] | ≤ 10 nM | – | – | –
[2H]c1ccc(Nc2nc(Nc3cc4c5c(c3)CN(C)CC5CCC4)ncc2C#N)nc1N=S(C)(C)=O (stereo not shown) [Compound 135] | ≤ 10 nM | – | – | –
[2H]C([2H])([2H])S(=O)(=Nc1cccc(Nc2nc(Nc3cc4c5c(c3)CN(C)CC5CCC4)ncc2C#N)n1)C([2H])([2H])[2H] (stereo not shown) [Compound 136] | ≤ 10 nM | – | – | –
CN1Cc2cc(Nc3ncc(C#N)c(Nc4cccc(P(C)(C)=O)n4)n3)cc3c2C(CCC3)C1 (stereo not shown) [Compound 137] | ≤ 10 nM | > 5000 nM | 26 nM | –
[2H]C1([2H])C2CCCc3cc(Nc4ncc(C#N)c(Nc5cccc(N=S(C)(C)=O)n5)n4)cc(c32)CN1C (stereo not shown) [Compound 279] | ≤ 10 nM | – | – | –
[2H]C1([2H])c2cc(Nc3ncc(C#N)c(Nc4cccc(N=S(C)(C)=O)n4)n3)cc3c2C(CCC3)CN1C (stereo not shown) [Compound 280] | ≤ 10 nM | – | – | –
CN1Cc2cc(Nc3ncc(C#N)c(Nc4cccc(N=S(C)(C)=O)n4)n3)cc3c2C(CCC3O)C1 (stereo not shown) [Compound 289] | ≤ 10 nM | – | – | –
CN1Cc2cc(Nc3ncc(C#N)c(Nc4cccc(N=S(C)(C)=O)n4)n3)cc3c2C(CCC3N)C1 (stereo not shown) [Compound 290] | ≤ 10 nM | – | – | –
CN1Cc2cc(Nc3ncc(C#N)c(Nc4cccc(N=S(C)(C)=O)n4)n3)cc3c2C(CC(O)C3)C1 (stereo not shown) [Compound 291] | ≤ 10 nM | – | – | –
CN1Cc2cc(Nc3ncc(C#N)c(Nc4cccc(N=S(C)(C)=O)n4)n3)cc3c2C(CC(N)C3)C1 (stereo not shown) [Compound 292] | ≤ 10 nM | – | – | –
CN1Cc2cc(Nc3ncc(C#N)c(Nc4cccc(N=S(C)(C)=O)n4)n3)cc3c2C(C1)C(O)CC3 (stereo not shown) [Compound 293] | ≤ 10 nM | – | – | –
CN1Cc2cc(Nc3ncc(C#N)c(Nc4cccc(N=S(C)(C)=O)n4)n3)cc3c2C(C1)C(N)CC3 (stereo not shown) [Compound 294] | ≤ 10 nM | – | – | –
Cc1ccc(Nc2nc(Nc3cc4c5c(c3)CN(C)CC5CCC4)ncc2C#N)nc1N=S(C)(C)=O (stereo not shown) [Compound 295] | ≤ 10 nM | 72 nM | 1.5 nM | –
CN1Cc2cc(Nc3ncc(C#N)c(Nc4ccc(Cl)c(N=S(C)(C)=O)n4)n3)cc3c2C(CCC3)C1 (stereo not shown) [Compound 296] | ≤ 10 nM | 161 nM | 3.1 nM | –
Nc1ccn([C@@H]2O[C@H](CO)[C@@H](O)C2(F)F)c(=O)n1 [Gemcitabine, gemcitabine, reference compound] | – | – | – | TGI ([4]; day 18, nude mouse HT29 xenograft): 57%; Tumor volume on day 1 of treatment (mm^3) ([4]; nude mouse HT29 xenograft): 112 mm^3; Tumor volume on day 18 of treatment (mm^3) ([4]; nude mouse HT29 xenograft): 539 mm^3

Reference: patent publication US12655127B2, “Fused ring compound as Wee-1 inhibitor” (WIGEN BIOMEDICINE TECHNOLOGY (SHANGHAI) CO., LTD., priority 2021, dated 2026)
